Data on 12 compounds can be found in patent US4710500A, “1-(4'-fluorophenyl)-3,5-substituted indoles useful in the treatment of psychic disorders and pharmaceutical compositions thereof” (H. Lundbeck A/S, priority 1985, dated 1987).

Each structure is given as a SMILES string. Like-named read-outs stand apart in the source and are kept apart here.

The subject of data set [1] is methylphenidate-induced gnawing. Briefly: Methylphenidate antagonism. It is filed as in vivo, mice. As to conditions: for ED50: Mus musculus.
Data set [2] is described as follows: Catalepsy. It is filed as in vivo, rat.
The target in data set [3] is T1, 5-HT2 receptor (Rattus norvegicus, UniProt P14842).
T1 construct: from tissue; host or cells: living rats (in vivo), CNS
T1 sequence (P14842 whole entry): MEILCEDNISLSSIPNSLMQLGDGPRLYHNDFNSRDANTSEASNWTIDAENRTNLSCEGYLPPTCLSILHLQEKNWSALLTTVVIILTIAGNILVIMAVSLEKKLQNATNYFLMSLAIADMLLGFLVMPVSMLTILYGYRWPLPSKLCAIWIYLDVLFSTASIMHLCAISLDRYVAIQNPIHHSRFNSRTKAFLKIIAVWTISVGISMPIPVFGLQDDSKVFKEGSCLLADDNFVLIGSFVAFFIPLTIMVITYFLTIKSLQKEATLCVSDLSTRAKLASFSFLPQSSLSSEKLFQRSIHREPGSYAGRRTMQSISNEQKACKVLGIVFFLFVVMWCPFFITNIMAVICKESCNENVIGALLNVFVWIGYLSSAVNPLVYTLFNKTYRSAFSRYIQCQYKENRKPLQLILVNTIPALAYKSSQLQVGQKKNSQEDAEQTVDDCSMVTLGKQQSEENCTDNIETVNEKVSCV
As to the kind of experiment: Quipazine inhibition (head twitches). It is filed as in vivo. As to conditions: sc 2 hours before quipazine 15 umol/kg sc. The protocol: Quipazine and a number of other compounds, which increase 5-HT2 receptor activity in the CNS, induce a characteristic rapid shake (twitch) of the head. This response is inhibited by 5-HT2 receptor antagonists (Vetulani et al. 1980, Arnt et al. 1984).
The test compound or saline is injected subcutaneously 2 hours before subcutaneous injection of quipazine hemimalecate (15umol/kg). At least 3 dose groups, each consisting of at least 4 rats, are used. The rats are individually placed in observation cages (12×25 cm) and the number of head twitches are counted 30-40 min after quipazine administration. Inhibition of head twitches is expressed in per cent of the number of head twitches in the control group. ED 50 values are calculated by log-probit analysis.
Vetulani, J., B.B. Beduarczyk, K. Reichenberg and A. Rokost: Neuropharmacology 19, 155-158, […].
(§1) Arnt, J., J. Hyttel and J.-J. Larsen: Acta pharmacol. et toxicol. 55, 363-372, 1984.

For data set [4], the target named is T2, dopamine (DA) D-2 receptors (Rattus norvegicus, UniProt P61169).
T2 construct: DA D-2 receptors in rat striatal membranes; from tissue; host or cells: rat striatal membranes
T2 sequence (P61169 whole entry): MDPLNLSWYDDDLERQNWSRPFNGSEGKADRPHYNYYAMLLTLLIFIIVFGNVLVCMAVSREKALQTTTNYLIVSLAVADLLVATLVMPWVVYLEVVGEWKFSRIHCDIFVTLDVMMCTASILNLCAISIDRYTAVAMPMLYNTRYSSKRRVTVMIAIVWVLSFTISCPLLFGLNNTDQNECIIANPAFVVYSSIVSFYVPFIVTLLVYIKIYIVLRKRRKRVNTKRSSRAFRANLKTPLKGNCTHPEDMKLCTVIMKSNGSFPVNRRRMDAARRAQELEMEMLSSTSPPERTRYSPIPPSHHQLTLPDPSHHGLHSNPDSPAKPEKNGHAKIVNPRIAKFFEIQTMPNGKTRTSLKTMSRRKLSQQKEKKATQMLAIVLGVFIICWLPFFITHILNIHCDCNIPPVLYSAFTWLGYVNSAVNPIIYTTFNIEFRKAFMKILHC
As to the kind of experiment: 3H-spiroperidol binding, dopamine D-2 receptors in rat striatal membranes. Here is the method: (§2) 4. ^3 H-spiroperidol bindings
The affinity of compounds to dopamine (DA) D-2 receptors and serotomin2 (5-HT2) receptors was determined by in vitro receptor binding technique.
Arnt, J., J. Hyttel and J.-J. Larsen: Acta pharmacol. et toxicol.

The target of data set [5] is T3, serotomin2 (5-HT2) receptors (Rattus norvegicus, UniProt P14842).
T3 construct: 5-HT2 receptors in rat cortical membranes; from tissue; host or cells: rat cortical membranes
T3 sequence (P14842 whole entry): as the sequence (P14842 whole entry) above
Briefly: 3H-spiroperidol binding, 5-HT2 receptors in rat cortical membranes. As to conditions: in vitro, read-out: 3H-Spiroperidol bindings 5-HT2 receptors IC50. The protocol: as §2
The affinity of compounds to dopamine (DA) D-2 receptors and serotomin2 (5-HT2) receptors was determined by in vitro receptor binding technique. Binding of ^3 H-spiroperidol to DA D-2 receptors in rat striatal membranes and to 5-HT2 receptors in rat cortical membranes was determined as described in detail by Arnt et al. (1984).
as §1

The conditions of data set [6]: i.v., mice; compared with known neuroleptics.
Data set [7] is described as follows: in vivo. As to conditions: mouse, iv.
A short description of data set [8]: pharmacological testing (general statements). As to conditions: result in words. Here is the method:
The compounds of Formula I were tested according to reliable and well recognized pharmacological tests as follows: […]

Setting [9] is: ip, i.p. test substance, mice, methylphenidate s.c. 60 mg/kg, read-out: MePh Antg. ED50(ip).
Setting [10] is: read-out: Catalep. ED50(po) 1-6 h, po, rat, 1-6 h.
Where [11] appears, read: read-out: Catalep. ED50(po) 24 h, po, rat, 24 h.
Where [12] appears, read: rat striatal membranes, in vitro, read-out: 3H-Spiroperidol bindings DA-2 receptors IC50.
Where [13] appears, read: i.p. test substance, mice, methylphenidate s.c. 60 mg/kg.
Where [14] appears, read: sc, read-out: MePh Antg. ED50 (sc).
Setting [15] is: Rattus norvegicus, sc, 24 h, read-out: Catalep. ED50 (sc) 24 h.
Setting [16] is: Rattus norvegicus, sc, read-out: Catalep. ED50 (sc) 1-6 h.
Where [17] appears, read: ip, read-out: MePh Antg. ED50(ip).
Where [18] appears, read: Rattus norvegicus, po, read-out: Catalep. ED50(po) 1-6 h.
[19] abbreviates: Rattus norvegicus, po, 24 h, read-out: Catalep. ED50(po) 24 h.

Regarding `OCCN1CCN(c2cn(-c3ccc(F)cc3)c3ccc(C(F)(F)F)cc23)CC1` [Lu 21-152, 1-(4'-Flurophenyl)-3-(4-(2-hydroxyethyl)-piperazino)-5-trifluoromethyl-1H-indole], the ED50 came out at 0.11 µmol/kg in data set [1] (setting [9]), 0.17 µmol/kg in data set [2] (setting [10]) and 0.28 µmol/kg in data set [2] (setting [11]). Also, in data set [3], the “Qvipaz. inh. ED50(sc)” value came out at 0.023 µmol/kg. The IC50 in data set [4] (setting [12]) turned out to be 2.8 nM; in data set [5], 7.4 nM. Further, in data set [6], the acute toxicity entry is “comparatively low acute toxicity”. The compound also came in with an LD50 in data set [7] of 147 µmol/kg.

Take `CN1CCN(c2cn(-c3ccccc3)c3ccc(Cl)cc23)CC1` [Lu 23-015, 5-Chloro-3-(4-methylpiperazino)-1-phenyl-1H-indole, reference compound]: the “MePh Antg. ED50(ip)” value in data set [1] (setting [13]) is 8.8 µmol/kg. Further, the “Catalep. ED50(po) 1-6 h” value in data set [2] (po, rat, 1-6 h) is 12.0 µmol/kg. Besides, in data set [2] (po, rat, 24 h), the “Catalep. ED50(po) 24 h” value is greater than 15 µmol/kg. Besides, the “Qvipaz. inh. ED50(sc)” value in data set [3] was 0.062 µmol/kg. For the same compound, the IC50 in data set [4] (setting [12]) was 12 nM; in data set [5] it was 3.9 nM. Besides, in data set [8], the “effects in the pharmacological testing” value is recorded as “without interesting effects”.

For the compound `OCCN1CC=C(c2cn(-c3ccc(F)cc3)c3ccc(C(F)(F)F)cc23)CC1` [Lu 23-156, 1-(4'-Fluorophenyl)-3-(1-(2-hydroxyethyl)-1,2,3,6-tetrahydropyridin-4-yl) -5-trifluoromethyl-1H-indole], the results for the ED50 in data set [1] (setting [14]), in data set [2] (setting [15]) and in data set [2] (setting [16]) were 0.07 µmol/kg, 1.1 µmol/kg and less than 0.19 µmol/kg, respectively. Also, the “Qvipaz. inh. ED50(sc)” value in data set [3] was 0.03 µmol/kg. Also, the values for the IC50 in data set [4] and in data set [5] were 19 nM and 15 nM, respectively.

For `Br.CN1CC=C(c2cn(-c3ccc(F)cc3)c3ccc(Cl)cc23)CC1` [Lu 22-117, 5-Chloro-1-(4'-fluorophenyl)-3-(1-methyl-1,2,3,6-tetrahydropyridin-4-yl)-1H-indole, hydrobromide], the ED50 in data set [1] (setting [17]) was 0.06 µmol/kg; in data set [2] (setting [15]), greater than 0.37 µmol/kg; in data set [2] (setting [16]), 0.09 µmol/kg. Moreover, in data set [3], the “Qvipaz. inh. ED50(sc)” value was found to be 0.052 µmol/kg. Besides, the figures for the IC50 in data set [4] and in data set [5] were 1.2 nM and 0.66 nM, respectively.

For `CN(C)CCCN1c2ccccc2Sc2ccc(Cl)cc21` [Clorpromazine, reference compound], the ED50 in data set [1] (setting [17]) worked out at 23 µmol/kg; in data set [2] (setting [18]) it was 70 µmol/kg. The LD50 in data set [7] fell in the range of 120 to 180 µmol/kg.

For the compound `CN1CC=C(c2cn(-c3ccc(F)cc3)c3ccc(C(F)(F)F)cc23)CC1.O=C(O)C(=O)O` [Lu 21-120, 1-(4'-Fluorophenyl)-3-(1-methyl-1,2,3,6-tetrahydropyridin-4-yl)-5-trifluoromethyl-1H-indole, oxalate], the results for the ED50 in data set [1] (setting [17]), in data set [2] (setting [19]) and in data set [2] (setting [18]) were 0.08 µmol/kg, 0.35 µmol/kg and 0.32 µmol/kg, respectively. In data set [3], the “Qvipaz. inh. ED50(sc)” value worked out at 0.03 µmol/kg. In addition, the results for the concentration for half-maximal inhibition (IC50) in data set [4] and in data set [5] were 0.61 nM and 3.1 nM, respectively.

With `CN1CC=C(c2cn(-c3ccc(F)cc3)c3ccc([N+](=O)[O-])cc23)CC1` [Lu 22-135, 1-(4'-Fluorophenyl)-5-nitro-3-(1-methyl-1,2,3,6-tetrahydropyridin-4-yl)-1H-indole], the ED50 was 0.1 µmol/kg in data set [1] (setting [17]), 0.078 µmol/kg in data set [2] (setting [18]) and greater than 0.89 µmol/kg in data set [2] (setting [15]). For the same compound, in data set [3], the “Qvipaz. inh. ED50(sc)” value was determined as 0.009 µmol/kg. Moreover, the figures for the IC50 in data set [4] and in data set [5] were 1.1 nM and 1.9 nM, respectively. For the same compound, in data set [6], the acute toxicity result was “comparatively low acute toxicity”. The compound further showed an LD50 in data set [7] of 276 µmol/kg.

For `Fc1ccc(-n2cc(N3CCNCC3)c3cc(C(F)(F)F)ccc32)cc1` [Lu 21-153, 1-(4'-Fluorophenyl)-3-piperazino-5-trifluoromethyl-1H-indole], the ED50 came out at 2 µmol/kg in data set [1] (setting [9]), 7.1 µmol/kg in data set [2] (setting [10]) and 16 µmol/kg in data set [2] (setting [11]). In data set [3], the “Qvipaz. inh. ED50(sc)” value came out at 0.37 µmol/kg. Besides, the IC50 in data set [4] (setting [12]) is 3.7 nM; in data set [5] it was 6.7 nM.

In the case of `OCCN1CC=C(c2c[nH]c3ccc(Cl)cc23)CC1` [Lu 23-143, 5-chloro-3-(1-(2-hydroxyethyl)-1,2,3,6-tetrahydropyrid-4-yl)indol, reference compound], the ED50 in data set [1] (setting [14]) is 72 µmol/kg; in data set [2] (setting [15]), greater than 18 µmol/kg; in data set [2] (setting [16]) it was greater than 18 µmol/kg. In addition, in data set [3], the “Qvipaz. inh. ED50(sc)” value is 4.5 µmol/kg. In data set [8], the “effects in the pharmacological testing” value is “almost inactive compared with the compounds of Formula I”.

As to `CN1CC=C(c2cn(-c3ccc(F)cc3)c3ccc(F)cc23)CC1.Cl` [Lu 21-018, 5-Fluoro-1-(4'-fluorophenyl)-3-(1-methyl-1,2,3,6-tetrahydropyridin-4-yl)-1H-indole, hydrochloride], the ED50 in data set [1] (setting [17]) was 0.58 µmol/kg; in data set [2] (setting [19]), greater than 6.9 µmol/kg; in data set [2] (setting [18]) it was 2 µmol/kg. Further, the “Qvipaz. inh. ED50(sc)” value in data set [3] worked out at 0.15 µmol/kg. Moreover, the results for the IC50 in data set [4] (setting [12]) and in data set [5] were 0.74 nM and 3 nM, respectively.

`OCCN1CCN([C@@H]2C[C@@H](c3ccc(F)cc3)c3ccc(C(F)(F)F)cc32)CC1` (racemic) [Tefludazine, reference compound]: the “MePh Antg. ED50(ip)” value in data set [1] (setting [13]) was 0.06 µmol/kg. Also, in data set [2] (po, rat, 1-6 h), the “Catalep. ED50(po) 1-6 h” value is 0.61 µmol/kg. Besides, in data set [2] (po, rat, 24 h), the “Catalep. ED50(po) 24 h” value came out at 0.9 µmol/kg. Further, in data set [3], the “Qvipaz. inh. ED50(sc)” value came out at 0.06 µmol/kg. Further, the IC50 in data set [4] (setting [12]) worked out at 19 nM; in data set [5] it was 8.6 nM. Further, the LD50 in data set [7] fell in the range of 120 to 180 µmol/kg.

Turning to `Cc1ccc2c(c1)c(C1=CCN(C)CC1)cn2-c1ccc(F)cc1.Cl` [Lu 20-089, 1-(4'-Fluorophenyl)-5-methyl-3-(1-methyl-1,2,3,6-tetrahydropyridin-4-yl)-1H-indole, hydrochloride], in data set [1] (setting [13]), the “MePh Antg. ED50(ip)” value stood at 0.18 µmol/kg. The “Catalep. ED50(po) 1-6 h” value in data set [2] (po, rat, 1-6 h) stood at 0.43 µmol/kg. Moreover, the “Catalep. ED50(po) 24 h” value in data set [2] (po, rat, 24 h) came to 6.5 µmol/kg. For the same compound, the “Qvipaz. inh. ED50(sc)” value in data set [3] was determined as 0.12 µmol/kg. In addition, the IC50 in data set [4] worked out at 0.34 nM; in data set [5], 1.8 nM.
